Assay results reported in ChEMBL document CHEMBL2057096, “Discovery of novel 1,2,4-thiadiazole derivatives as potent, orally active agonists of sphingosine 1-phosphate receptor subtype 1 (S1P(1))” (J Med Chem, 2012).
≈ marks a conversion by molar mass, not a printed value. Calls of active or inactive are those of the source. The rule behind the calls is not given here.

Tests used:
[1] = Oral bioavailability in Sprague-Dawley rat at 2 mg/kg; assay type: ADME, organism-based; settings: in vivo
Cytochrome P450 2C19 = Cytochrome P450 2C19 (Homo sapiens, UniProt P33261); assay: Inhibition of CYP2C19; assay type: ADME
[2] = target: Sphingosine 1-phosphate receptor 1 (Homo sapiens, UniProt P21453); assay: Agonist activity against S1P1 receptor by cell based FRET assay; assay type: functional
[3] = Oral bioavailability in mouse; assay type: ADME, organism-based; settings: in vivo
Cytochrome P450 3A4 = Cytochrome P450 3A4 (Homo sapiens, UniProt P08684); assay: Inhibition of CYP3A4; assay type: ADME
Cytochrome P450 2C9 = Cytochrome P450 2C9 (Homo sapiens, UniProt P11712); assay: Inhibition of CYP2C9; assay type: ADME
Mus musculus [4] = assay: Decrease in lymphocyte count in mouse acute lymphopenia model at 1 mg/kg, po after 24 hrs by flow cytometry relative to base line; assay type: functional; parameters: scale not given: the % may be the effect or the level left
[5] = Stability of the compound assessed as glutathione adduct formation; assay type: physicochemical
[6] = Percentage unbound in human plasma; assay type: ADME, cell-free
[7] = target: Sphingosine 1-phosphate receptor 3 (Homo sapiens, UniProt Q99500); assay: Agonist activity against S1P3 receptor by cell based FRET assay; assay type: functional
[8] = Half life in Sprague-Dawley rat at 1 mg/kg, iv and 2 mg/kg, po; assay type: ADME, organism-based; settings: in vivo
Mus musculus [9] = assay: Decrease in lymphocyte count in mouse acute lymphopenia model at 1 mg/kg, po after 4 hrs by flow cytometry relative to base line; assay type: functional; parameters: scale not given: the % may be the effect or the level left
Cytochrome P450 1A2 = target: T1, Cytochrome P450 1A2 (Homo sapiens, UniProt P05177); assay: Inhibition of CYP1A2; assay type: ADME
T1 sequence (P05177 whole entry): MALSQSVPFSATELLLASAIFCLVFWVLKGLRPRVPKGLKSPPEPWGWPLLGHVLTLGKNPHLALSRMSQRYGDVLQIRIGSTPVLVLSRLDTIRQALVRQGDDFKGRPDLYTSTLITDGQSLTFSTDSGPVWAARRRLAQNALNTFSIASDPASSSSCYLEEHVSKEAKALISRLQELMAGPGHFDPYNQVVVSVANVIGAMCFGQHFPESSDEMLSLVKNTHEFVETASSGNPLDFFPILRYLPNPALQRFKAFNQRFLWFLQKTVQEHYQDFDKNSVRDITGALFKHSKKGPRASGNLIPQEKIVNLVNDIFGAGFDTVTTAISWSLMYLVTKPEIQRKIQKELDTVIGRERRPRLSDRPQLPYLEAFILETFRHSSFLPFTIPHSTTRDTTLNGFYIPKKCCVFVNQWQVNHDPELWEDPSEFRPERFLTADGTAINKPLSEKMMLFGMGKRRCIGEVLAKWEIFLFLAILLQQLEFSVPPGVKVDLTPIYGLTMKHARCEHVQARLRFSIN

Homo sapiens = species on record: Homo sapiens; assay: Selectivity ratio of EC50 for S1P3 receptor to EC50 for S1P1 receptor
Cytochrome P450 2D6 = Cytochrome P450 2D6 (Homo sapiens, UniProt P10635); assay: Inhibition of CYP2D6; assay type: ADME
[10] = Ratio of drug level in brain to blood in C57BL/6 mouse at 2 mg/kg, ip after 4 hrs; assay type: ADME, organism-based; parameters: dose 2 mg/kg, route intraperitoneal
[11] = Ratio of drug level in brain to blood in C57BL/6 mouse at 2 mg/kg, ip after 1 hr; assay type: ADME, organism-based; parameters: dose 2 mg/kg, route intraperitoneal
[12] = Half life in mouse; assay type: ADME, organism-based; settings: in vivo
Rattus norvegicus [13] = species on record: Rattus norvegicus; assay: Decrease in lymphocyte count in rat; assay type: functional, organism-based
Rattus norvegicus [14] = assay: Antiinflammatory activity in rat assessed as decrease in lymphocyte count at 1 mg/kg, po qd for 7 days relative to base line; assay type: functional; parameters: scale not given: the % may be the effect or the level left
Rattus norvegicus [15] = species on record: Rattus norvegicus; assay: Decrease in lymphocyte count in rat after 60 hrs; assay type: functional, organism-based
Rattus norvegicus [16] = assay: Antiinflammatory activity in rat assessed as decrease in lymphocyte count at 1 mg/kg, po qd for 7 days measured after 3 days of last post dose relative to control; assay type: functional; parameters: scale not given: the % may be the effect or the level left
[17] = Solubility of the compound; assay type: physicochemical
[18] = Percentage unbound in rat plasma; assay type: ADME, cell-free
[19] = Permeability of the compound; assay type: ADME; settings: not told; read-out: permeability
Mus musculus [20] = assay: Antiinflammatory activity in C57BL/6 mouse EAE model assessed as decrease in clinical symptoms at 1 mg/kg, po administered qd after 10 days post immunization; assay type: functional, organism-based; parameters: dose 1 mg/kg
[21] = AUC (0 to 24 hrs) in mouse; assay type: ADME, organism-based; parameters: time < 24 hr; settings: plasma

Chain of Cytochrome P450 2C9 (P11712 whole entry): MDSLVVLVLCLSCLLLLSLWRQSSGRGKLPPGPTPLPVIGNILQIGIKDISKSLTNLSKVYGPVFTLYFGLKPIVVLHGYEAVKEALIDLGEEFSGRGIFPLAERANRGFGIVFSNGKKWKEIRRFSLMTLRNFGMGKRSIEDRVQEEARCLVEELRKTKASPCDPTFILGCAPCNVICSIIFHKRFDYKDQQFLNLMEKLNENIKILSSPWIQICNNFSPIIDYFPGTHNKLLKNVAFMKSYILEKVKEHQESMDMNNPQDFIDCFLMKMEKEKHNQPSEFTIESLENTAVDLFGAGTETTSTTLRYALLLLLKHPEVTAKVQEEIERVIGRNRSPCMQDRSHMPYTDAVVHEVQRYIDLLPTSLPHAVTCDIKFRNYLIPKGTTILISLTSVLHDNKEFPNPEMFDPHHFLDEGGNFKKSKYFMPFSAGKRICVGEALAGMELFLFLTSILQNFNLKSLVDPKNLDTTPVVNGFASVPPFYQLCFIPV
Chain of Cytochrome P450 2C19 (P33261 whole entry): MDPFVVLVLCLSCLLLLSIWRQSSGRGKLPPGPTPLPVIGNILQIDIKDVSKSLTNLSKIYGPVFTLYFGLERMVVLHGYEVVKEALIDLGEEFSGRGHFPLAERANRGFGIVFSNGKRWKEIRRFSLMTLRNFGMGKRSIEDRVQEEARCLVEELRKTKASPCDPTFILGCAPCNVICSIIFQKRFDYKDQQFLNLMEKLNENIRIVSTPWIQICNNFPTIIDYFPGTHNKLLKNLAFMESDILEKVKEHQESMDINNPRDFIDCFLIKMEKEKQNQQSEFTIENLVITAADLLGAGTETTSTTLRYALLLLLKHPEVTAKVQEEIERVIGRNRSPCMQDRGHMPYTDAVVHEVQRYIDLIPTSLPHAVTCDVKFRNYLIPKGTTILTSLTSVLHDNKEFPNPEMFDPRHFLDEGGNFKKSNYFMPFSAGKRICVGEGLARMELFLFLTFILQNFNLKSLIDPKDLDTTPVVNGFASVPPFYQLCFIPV
Chain of Cytochrome P450 3A4 (P08684 whole entry): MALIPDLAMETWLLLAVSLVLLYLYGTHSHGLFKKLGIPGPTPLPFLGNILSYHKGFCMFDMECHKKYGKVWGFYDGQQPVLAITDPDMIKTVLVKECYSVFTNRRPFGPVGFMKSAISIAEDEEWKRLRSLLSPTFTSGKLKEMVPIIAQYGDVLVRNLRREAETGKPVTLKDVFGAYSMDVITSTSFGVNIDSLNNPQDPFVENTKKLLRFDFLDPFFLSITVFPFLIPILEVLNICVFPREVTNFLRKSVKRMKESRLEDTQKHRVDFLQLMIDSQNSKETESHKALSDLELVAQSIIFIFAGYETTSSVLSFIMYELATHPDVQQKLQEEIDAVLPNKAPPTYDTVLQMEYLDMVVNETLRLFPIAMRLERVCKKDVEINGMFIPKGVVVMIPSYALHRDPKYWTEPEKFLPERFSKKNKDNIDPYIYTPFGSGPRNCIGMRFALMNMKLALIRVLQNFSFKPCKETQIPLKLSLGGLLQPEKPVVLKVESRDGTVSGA
Chain of Cytochrome P450 2D6 (P10635 whole entry): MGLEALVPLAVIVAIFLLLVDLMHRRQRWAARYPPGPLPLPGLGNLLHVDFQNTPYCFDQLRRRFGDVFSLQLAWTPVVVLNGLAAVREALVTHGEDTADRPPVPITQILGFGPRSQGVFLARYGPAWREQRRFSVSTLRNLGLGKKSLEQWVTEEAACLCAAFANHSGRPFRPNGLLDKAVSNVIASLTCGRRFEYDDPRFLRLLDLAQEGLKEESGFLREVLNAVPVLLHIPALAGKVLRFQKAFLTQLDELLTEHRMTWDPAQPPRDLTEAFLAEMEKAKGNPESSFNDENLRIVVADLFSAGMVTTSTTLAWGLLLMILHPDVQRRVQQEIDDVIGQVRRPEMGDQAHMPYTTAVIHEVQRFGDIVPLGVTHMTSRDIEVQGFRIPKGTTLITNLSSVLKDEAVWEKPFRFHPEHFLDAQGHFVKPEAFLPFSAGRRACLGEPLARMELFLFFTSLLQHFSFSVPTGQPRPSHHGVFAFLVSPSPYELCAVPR
Chain of Sphingosine 1-phosphate receptor 1 (P21453 whole entry): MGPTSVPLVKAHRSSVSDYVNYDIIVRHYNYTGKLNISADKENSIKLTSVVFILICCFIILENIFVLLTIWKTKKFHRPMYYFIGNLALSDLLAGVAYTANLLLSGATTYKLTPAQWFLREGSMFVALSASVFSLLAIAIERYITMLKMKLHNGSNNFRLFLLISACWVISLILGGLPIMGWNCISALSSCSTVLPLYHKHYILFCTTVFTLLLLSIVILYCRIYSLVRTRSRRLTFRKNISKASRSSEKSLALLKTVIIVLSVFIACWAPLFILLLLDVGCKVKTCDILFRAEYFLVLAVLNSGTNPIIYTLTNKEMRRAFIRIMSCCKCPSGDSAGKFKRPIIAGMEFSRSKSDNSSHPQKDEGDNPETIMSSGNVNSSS
Chain of Sphingosine 1-phosphate receptor 3 (Q99500 whole entry): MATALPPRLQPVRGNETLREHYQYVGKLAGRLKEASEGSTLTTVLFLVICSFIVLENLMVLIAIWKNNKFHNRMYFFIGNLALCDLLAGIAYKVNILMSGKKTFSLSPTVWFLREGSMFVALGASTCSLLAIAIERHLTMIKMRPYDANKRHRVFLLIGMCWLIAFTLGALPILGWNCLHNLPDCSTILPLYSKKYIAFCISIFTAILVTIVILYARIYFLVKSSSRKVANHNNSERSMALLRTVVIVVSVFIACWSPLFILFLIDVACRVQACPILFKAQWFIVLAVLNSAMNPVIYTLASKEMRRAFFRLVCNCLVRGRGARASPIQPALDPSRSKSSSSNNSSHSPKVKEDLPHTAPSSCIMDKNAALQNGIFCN

bioavailability [1] [%]	IC50 (Cytochrome P450 2C19) [µM]	EC50 [2] [µM]	bioavailability [3] [%]	IC50 (Cytochrome P450 3A4) [µM]	IC50 (Cytochrome P450 2C9) [µM]	Stability [5]	fraction unbound [6]	EC50 [7] [µM]	half-life [8] [h]	IC50 (Cytochrome P450 1A2) [µM]	Ratio EC50 (Homo sapiens)	IC50 (Cytochrome P450 2D6) [µM]	Kp at 4 h [10]	Kp at 1 h [11]	half-life [12] [h]	solubility [17] [µg/mL]	Papp [19] [×10⁻⁶ cm/s]	SMILES	Activity (Mus musculus [4]) [%]	Activity (Mus musculus [9]) [%]	other results
70	> 10	0.000158	40	> 10	> 10	Stable	0.0045	> 3.16	27.7	> 10	> 1000	> 10	1.48	0.52	15.6	–	–	CCc1c(CCN2CCC(C(=O)O)CC2)cccc1-c1nsc(-c2ccc(OC(C)C)c(Cl)c2)n1	40	16	–
50	> 10	0.000794	45	> 10	> 10	Stable	0.0064	> 3.16	6.2	> 10	> 1000	> 10	0.65	0.23	5.3	–	–	CCc1c(CCN2CCC(C(=O)O)CC2)cccc1-c1nsc(-c2ccc(CC(C)C)c(C#N)c2)n1	72	23	Activity (Rattus norvegicus [13]): Dose-dependent effect; IC50 (Rattus norvegicus [13]): 0.012 µg/mL (≈ 0.0239 µM); Activity (Rattus norvegicus [14]): 20%; Activity (Rattus norvegicus [15]): inactive; Activity (Rattus norvegicus [16]): 70%
–	> 10	0.0002	–	> 10	> 10	–	–	> 10	–	> 10	–	> 10	0.68	0.53	–	46 (≈ 110 µM)	34.5	CCc1c(CCCC(=O)O)cccc1-c1noc(-c2ccc(OC(C)C)c(C#N)c2)n1	–	–	fraction unbound [18]: 0.0004
–	–	0.00126	100	> 10	> 10	–	0.0051	> 10	–	> 10	–	> 10	0.19	0.21	3.8	256 (≈ 588 µM)	23	CCc1c(CCCC(=O)O)cccc1-c1nnc(-c2ccc(OC(C)C)c(C#N)c2)s1	43.6	37.9	Activity (Mus musculus [20]): inactive; AUC(0-t) at 24 h [21]: 5940 ng·h/mL
